Source: article PMC10878032 (Molecular cancer therapeutics, 2023)
Where a SMILES comes first, the peptide text is derived from it. The star is where a group is joined. Cbz = O=C(OCc1ccccc1)*

Key:
[1] = cited from earlier work
[2] = test system: MCF-7 cells; assay: aggresome formation and immunostaining; format: cell-based, human; conditions: MCF-7, 24 hours; SP-2-225 10 μmol/L, MG-132 5 μmol/L
[3] = test system: MCF-7 breast cancer cells; assay: immunoblot of substrate acetylation in MCF-7 cells; format: cell-based, human; conditions: SP-2-225 10 μmol/L, SAHA and SP-1–161 1 μmol/L, Western blot
[4] = test system: bladder cancer; conditions: cited from earlier work

Cc1[nH]c2ccccc2c1CCNCc1ccc(/C=C/C(=O)NO)cc1 [LBH589]
direct cytotoxic effect [1]: direct cytotoxic effect even at nanomolar concentrations

CC(C)C[C@@H](C=O)NC(=O)[C@H](CC(C)C)NC(=O)[C@H](CC(C)C)NC(=O)OCc1ccccc1 [MG-132] (Cbz-Leu-Leu-Leu-aldehyde)
aggresome formation [2]: significant aggresome formation

O=C(CCCCCCC(=O)Nc1ccccc1)NO [SAHA, suberoylanilide hydroxamic acid]
acetylation of histone H3 [3]: increased the acetylation of α-tubulin and histone H3 | acetylation of α-tubulin [3]: increased the acetylation of α-tubulin

O=C(CCCCCCC(=O)Nc1ccc([C@H]2O[C@@H](CSc3nc(-c4ccccc4)c(-c4ccccc4)o3)C[C@@H](c3ccc(CO)cc3)O2)cc1)NO [Tubacin]
radiosensitization effect [4]: demonstrated radiosensitization effect
